For data set [1], the target named is Human immunodeficiency virus type 1 reverse transcriptase (Human immunodeficiency virus 1, UniProt Q72547). As to the kind of experiment: Inhibition of HIV1 reverse transcriptase.
The target of data set [2] is Human immunodeficiency virus type 1 reverse transcriptase (Human immunodeficiency virus 1) (UniProt Q72547).
Data set [3] in a line: Tmax in human plasma after the first dose of drug. Format: ADME, organism-based.
Data set [4] in a line: Half life in human administered as single dose. Conditions: in vivo. Format: ADME, organism-based.
A short description of data set [5]: Half life in human administered as multiple doses. In kind it is ADME, organism-based. Conditions: in vivo.

What is called IC50 is the concentration that gives 50% inhibition. High values mean lower potency, low ones higher potency. Compound `CCOC(=O)[C@@H]1C[C@@]12C(=O)Nc1ccc(Cl)cc12` registered an IC50 in data set [1] of 59 nM. The same measure, in the same setting: under `C=CCC[C@]12C[C@@]1(C(=O)OCC)C(=O)Nc1ccc(Br)cc12` stands 1 nM. A word on the IC90: it is the point of the concentration-response curve where the effect stands at 90%. A lower IC90 goes with an effect from little substance. In data set [2], `CC(C)=CCO[C@]1(C(F)(F)F)OC(=O)Nc2ccc(Cl)cc21` registered an IC90 of 2.68 nM. Compound `COc1ccc2c(c1)N(C(=O)OC(C)C)[C@@H](CSC)C(=O)N2` yielded a half-inhibitory concentration (IC50) in data set [1] of 2 nM. On to `CCCCO[C@]1(C(F)(F)F)OC(=O)Nc2ccc(Cl)cc21`, for which it took 10.2 nM to reach the 90% level in data set [2] (IC90). `O=C1Nc2ccccc2[C@@](C#CC2CC2)(C(F)(F)F)O1` returned an IC90 in data set [2] of 10.3 nM. `CC(C)CCO[C@]1(C(F)(F)F)OC(=O)Nc2ccc(Cl)cc21` showed an IC90 in data set [2] of 10.1 nM. On the same count and under the same terms, the value for `CNc1ccc2c(c1)[C@@](C#CC1CC1)(C(F)(F)F)OC(=O)N2` was 9.02 nM; that for `CN1C(=O)C(O)(C#CC2CC2)c2ccccc21` (stereo not drawn) was 40 nM; that for `O=C1Nc2cccc(F)c2[C@@](C#CC2CC2)(C(F)(F)F)O1` was 4.35 nM. Turning to `CCCO[C@@](C#CC1CC1)(c1cc(CC)c(C)[nH]c1=O)C(F)(F)F`, it took 32 nM to reach the 90% level in data set [2] (IC90). As for `Cc1ccc2c(c1)C(O)(C#CC1CC1)C(=O)N2C` (stereo not drawn), it took 6 nM to reach the 90% level in data set [2] (IC90). As to `O=C1Nc2ccc(F)cc2[C@@](C#CC2CC2)(C(F)(F)F)O1`, in data set [2], the IC90 was found to be 7.35 nM. The same measure, in the same setting: the value for `Nc1ccc2c(c1)[C@@](C#CC1CC1)(C(F)(F)F)OC(=O)N2` was 20.6 nM. Turning to `C[C@@H]1O[C@](/C=C/C2CC2)(C(F)(F)F)c2cc(Cl)ccc2NC1=O`, 46 nM corresponded to half-maximal inhibition in data set [1] (IC50). Still for that read-out and setting: under `CCCCC[C@]12C[C@@]1(C(=O)OCC)C(=O)Nc1ccc(Br)cc12` stands 1 nM.

As to `O=C1Nc2ccc([N+](=O)[O-])cc2[C@@](C#CC2CC2)(C(F)(F)F)O1`, the concentration for an effect of 90% (IC90) in data set [2] was determined as 0.83 nM. Still for that read-out and setting: under `C=CCO[C@]1(C(F)(F)F)OC(=O)Nc2ccc(Cl)cc21` stands 3.9 nM. For orientation: Tmax means the time from dosing to the highest level. One may read the half-life as the time needed for the level to fall by half in the phase considered. Low readings indicate fast loss, high ones slow loss. Turning to `O=C1Nc2ccc(Cl)cc2[C@@](C#CC2CC2)(C(F)(F)F)O1` [EFAVIRENZ], the time to peak (Tmax) in data set [3] is 5 h. Moreover, the half-life is 52 h in data set [4] and 40 h in data set [5]. Turning to `CCOC1(c2ccccc2)c2cc(Cl)ccc2NC(=O)N1C` (stereo not drawn), in data set [1], inhibition was half-maximal at 56 nM (IC50). For the compound `O=C1Nc2ccc(-c3ccccc3)cc2[C@@](C#CC2CC2)(C(F)(F)F)O1`, the IC90 in data set [2] worked out at 279 nM.

In data set [2], `O=C1Nc2ccc(Cl)cc2[C@@](C#Cc2ccco2)(C(F)(F)F)O1` gave an IC90 of 3.8 nM. The compound `COc1ccc2c(c1)[C@@](C#CC1CC1)(C(F)(F)F)OC(=O)N2` returned an IC90 in data set [2] of 2 nM. In turn, `CC(C)C#C[C@]1(C(F)(F)F)NC(=O)Nc2ccc(Cl)cc21` showed an IC90 in data set [2] of 3 nM. Turning to `O=C1Nc2ccc(OC(F)(F)F)cc2[C@@](C#CC2CC2)(C(F)(F)F)O1`, the 90% effect concentration (IC90) in data set [2] was determined as 18.9 nM. In the case of `O=C1Nc2ccc(Cl)cc2[C@@](C#Cc2ccccn2)(C(F)(F)F)O1`, it took 5.39 nM to reach the 90% level in data set [2] (IC90). On to `CC[C@H]1C(=O)Nc2ccc(F)cc2N1C(=O)OC(C)C` [OPAVIRALINE], for which, in data set [1], the IC50 was 45 nM. Besides, the IC90 in data set [2] turned out to be 4.8 nM. For the compound `Cc1ccc2c(c1)[C@@](C#CC1CC1)(C(F)(F)F)OC(=O)N2`, the concentration for an effect of 90% (IC90) in data set [2] amounted to 7.11 nM.

On to `CC(=O)Nc1ccc2c(c1)[C@@](C#CC1CC1)(C(F)(F)F)OC(=O)N2`, for which it took 296 nM to reach the 90% level in data set [2] (IC90). In data set [1], `O=S1(c2ccccc2)=NC(=S)Nc2ccccc21` (stereo not drawn) had an IC50 of 950 nM. Consider `CCO[C@]1(C(F)(F)F)OC(=O)Nc2ccc(Cl)cc21`, for which it took 18.3 nM to reach the 90% level in data set [2] (IC90). `O=C1Nc2ccc(Cl)cc2[C@@](C#CC2CC2)(C(F)(F)F)N1` displayed an IC90 in data set [2] of 2.7 nM. `CC(C)=CCN1C(C)C(=O)Nc2ccc(Cl)cc2S1(=O)=O` (stereo not drawn) yielded an IC50 in data set [1] of 800 nM. In the case of `C#CC1(C2CC2)c2cc(Cl)ccc2NC(=O)N1C` (stereo not drawn), the IC50 in data set [1] amounted to 6 nM. For `CN(C)c1ccc2c(c1)[C@@](C#CC1CC1)(C(F)(F)F)OC(=O)N2`, the 90% effect level in data set [2] (IC90) was put at 8.33 nM.

Source of the values: ChEMBL document CHEMBL3751765, “Efavirenz a nonnucleoside reverse transcriptase inhibitor of first-generation: Approaches based on its medicinal chemistry” (Eur J Med Chem, 2016).
